In PubChem BioAssay AID1648 (Sanford-Burnham Center for Chemical Genomics, 2009):
Activity calls are given as the source filed them. No rule for the calls is given here.

Target: Serine/threonine-protein kinase mTOR (Homo sapiens) (UniProt P42345)
Experiment: mTOR FRB domain ligand binding – biophysical, NMR (AID 1648)
Conditions: NMR binding to FRB domain, chemical shift

Serine/threonine-protein kinase mTOR (Homo sapiens), sequence (P42345 2015-2114): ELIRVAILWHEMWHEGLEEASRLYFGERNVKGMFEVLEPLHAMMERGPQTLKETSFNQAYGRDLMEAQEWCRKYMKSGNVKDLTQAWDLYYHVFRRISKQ

Row | Compound | Kd
1 | O=C(c1ccncc1)N1CCN(C(=O)c2ccco2)CC1 | > 4 mM (inactive)
2 | Cn1c(=O)cc(O)c2ccccc21 | > 4 mM (inactive)
3 | COc1nc(C)ccc1-c1noc(-c2ccco2)n1 | > 4 mM (inactive)
4 | COC(=O)c1cn(C(=O)OC)c2ccccc12 | > 4 mM (inactive)
5 | c1ccc(-c2noc(-c3ccco3)n2)nc1 | > 4 mM (inactive)
6 | COc1ccccc1NC(=O)c1ccc(C)s1 | > 4 mM (inactive)
7 | CCCC(=O)N1CCSCC1 | > 4 mM (inactive)
8 | O=C1CCCC(=O)N1c1ccc(O)cc1 | > 4 mM (inactive)
9 | NC1=NC(=O)C(CC(=O)Nc2ccccc2F)S1 (configuration not stated) | > 4 mM (inactive)
10 | CC(C)=CCCC1(C)C=Cc2c(O)c3c(c(CC=C(C)C)c2O1)OC12C(=CC4CC1C(C)(C)OC2(C/C=C(/C)C(=O)O)C4=O)C3=O (configuration not stated) | > 4 mM (inactive)
11 | C=CC1=C(C)/C(=C/c2[nH]c(Cc3[nH]c(/C=C4\NC(=O)C(C)=C4C=C)c(C)c3CCC(=O)O)c(CCC(=O)O)c2C)NC1=O | > 4 mM (inactive)
12 | COc1cccc(/C=C2/SC(N)=NC2=O)c1 | > 4 mM (inactive)
13 | CN1CCN(C(=S)NC(=O)c2ccn(C)n2)CC1 | > 4 mM (inactive)
14 | CC(=O)c1c(C)n([O-])c2ccccc2[n+]1=O | > 4 mM (inactive)
15 | O=C(O)C1CSC(c2ccc(Cl)cc2)N1 (configuration not stated) | > 4 mM (inactive)
16 | Cn1cc(Cl)c(C(=O)NC2CCCC2)n1 | > 4 mM (inactive)
17 | FC(F)(F)c1cc(-c2ccco2)nc(N2CCOCC2)n1 | > 4 mM (inactive)
18 | CNC(=O)c1cc(C)c(-c2ccccc2)s1 | > 4 mM (inactive)
19 | COc1cc2c(cc1OC)C1=C(C#N)CCC(=O)N1CC2 | > 4 mM (inactive)

Row | Compound | Kd
20 | Cc1ccc(/C=C2/NC(=S)NC2=O)s1 | > 4 mM (inactive)
21 | O=c1cc(-c2ccc(O)cc2)oc2cc(O)cc(O)c12 | > 4 mM (inactive)
22 | COC(=O)C1[C@H]2C[C@H]3c4[nH]c5ccccc5c4CCN3C[C@@H]2CC[C@@H]1O (some centres not stated) | > 4 mM (inactive)
23 | CCOC(=O)c1ccc(Oc2ccc(C)nn2)cc1 | > 4 mM (inactive)
24 | O=c1cc(-c2ccccc2)oc2c(O)c(O)ccc12 | > 4 mM (inactive)
25 | Nc1nc(-c2ccc(Cl)cc2)nn1C(=O)c1cccnc1 | > 4 mM (inactive)
26 | Cn1cnc2cc(NC(=O)c3ccco3)ccc21 | > 4 mM (inactive)
27 | Cc1cc(C)nc(/N=C(/N)Nc2cccc(F)c2)n1 | > 4 mM (inactive)
28 | COc1ccc2c(c1OC)C(=O)OC2[C@H]1c2c(cc3c(c2OC)OCO3)CCN1C (some centres not stated) | > 4 mM (inactive)
29 | O=C(O)c1cnc2sc3ccccc3n2c1=O | > 4 mM (inactive)
30 | Cc1ccccc1NC(=O)C1CC(=O)N=C(N)S1 (configuration not stated) | > 4 mM (inactive)
31 | C=C1CCC2C(CC2(C)C)C(=C)CC/C1=N/O (configuration not stated) | > 4 mM (inactive)
32 | C[C@]12CCC(=O)C=C1CCC1C2C(=O)C[C@@]2(C)C1CC[C@]2(O)C(=O)CO (some centres not stated) | > 4 mM (inactive)
33 | O=C1COc2cc(O)ccc21 | > 4 mM (inactive)
34 | CC1/C(=N/O)C[C@@H]2C[C@H]1C2(C)C (some centres not stated) | > 4 mM (inactive)
35 | CCn1c(-c2ccccc2)n[nH]c1=S | > 4 mM (inactive)
36 | O=C(O[C@@H]1Cc2c(O)cc(O)cc2O[C@@H]1c1cc(O)c(O)c(O)c1-c1c([C@H]2Oc3cc(O)cc(O)c3C[C@H]2O)cc(O)c(O)c1O)c1cc(O)c(O)c(O)c1 | > 4 mM (inactive)
37 | CCOc1ccc(-c2c(=O)n(O)c3ccccc3[n+]2[O-])cc1 | > 4 mM (inactive)
38 | CC(=O)NC(O)C(=O)c1cccs1 (configuration not stated) | > 4 mM (inactive)

Row | Compound | Kd
39 | O=c1[nH]cc(N=Cc2ccc(F)cc2)c(=O)[nH]1 | > 4 mM (inactive)
40 | Fc1ccc(Br)cc1/C=N/n1cnnc1 | > 4 mM (inactive)
41 | Cc1ccc(-c2nc(-c3cccnc3)no2)cc1 | > 4 mM (inactive)
42 | O=C(NCc1ccccn1)c1ccc(Br)s1 | > 4 mM (inactive)
43 | CC1=C/C(=C\c2c(O)[nH]c(=O)[nH]c2=O)C(C)=N1 | > 4 mM (inactive)
44 | Cc1nnc(SCc2ccccc2)[nH]c1=O | > 4 mM (inactive)
45 | C[n+]1ccn(C/C(N)=N/O)c1 | > 4 mM (inactive)
46 | CN(C)C(=O)CSc1nc2ccccc2c(=O)[nH]1 | > 4 mM (inactive)
47 | O=C(Cc1c(F)cccc1Cl)Nc1cccnc1 | > 4 mM (inactive)
48 | O=C1NC(=O)C(=Cc2ccccc2)C(=O)N1 | > 4 mM (inactive)
49 | NC(=O)C(=O)NCc1ccc(Cl)cc1 | > 4 mM (inactive)
50 | C/C=C(/C)C(=O)O[C@@H]1Cc2c(ccc3ccc(=O)oc23)OC1(C)C | > 4 mM (inactive)
51 | COc1cccc(/C=N/N=C2/NC(=O)CS2)c1 | > 4 mM (inactive)
52 | O=C1CC(=O)N(c2cccc(Cl)c2)N1 | > 4 mM (inactive)
53 | Nc1cc(=O)[nH]c(=O)n1-c1ccccc1 | > 4 mM (inactive)
54 | Cc1nc2ccccc2c(=O)n1/N=C/c1ccncc1 | > 4 mM (inactive)
55 | O=C(NCc1ccccn1)c1ccccc1Cl | > 4 mM (inactive)
56 | CC1(C)CC2C1CC[C@]1(C)CCC3C(C(=O)O)CC(=O)O[C@@]32C1 (some centres not stated) | > 4 mM (inactive)
57 | Oc1ccc(/C=C/c2cc(O)cc(O)c2)cc1 | > 4 mM (inactive)
